These results are taken from publication PMC11678778, “Anti-Inflammatory Properties of Novel 1,2-Benzothiazine Derivatives and Their Interaction with Phospholipid Model Membranes” (Membranes, 2024).

One assay has as its target T1, COX-1 (Ovis aries, UniProt P05979).
T1 construct: purchased
T1 sequence (P05979 25-600): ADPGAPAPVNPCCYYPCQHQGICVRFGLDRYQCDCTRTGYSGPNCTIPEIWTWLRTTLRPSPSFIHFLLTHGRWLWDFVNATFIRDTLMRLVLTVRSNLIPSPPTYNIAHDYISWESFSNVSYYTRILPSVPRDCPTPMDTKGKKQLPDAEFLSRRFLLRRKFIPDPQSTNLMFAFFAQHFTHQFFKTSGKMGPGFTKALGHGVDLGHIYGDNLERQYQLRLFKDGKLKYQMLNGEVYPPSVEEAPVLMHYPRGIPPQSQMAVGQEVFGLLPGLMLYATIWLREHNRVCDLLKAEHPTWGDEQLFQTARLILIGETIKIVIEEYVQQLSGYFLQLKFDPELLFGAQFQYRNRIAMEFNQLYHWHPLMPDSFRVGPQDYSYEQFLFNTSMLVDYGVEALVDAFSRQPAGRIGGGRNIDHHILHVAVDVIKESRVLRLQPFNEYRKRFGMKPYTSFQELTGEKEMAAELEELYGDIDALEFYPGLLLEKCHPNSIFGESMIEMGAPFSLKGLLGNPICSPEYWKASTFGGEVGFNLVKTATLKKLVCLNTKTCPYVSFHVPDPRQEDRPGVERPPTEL
Description: Cyclooxygenase inhibition assay (colorimetric, peroxidase activity, TMPD oxidation). It counts as biochemical. Particulars: incubation 2 min; mean ± SD. The method, then: (§1) To conduct the cyclooxygenase inhibition assay, we utilized a kit from the manufacturer that contained 150 μL of assay buffer, 10 μL of heme, and 10 μL of either COX-1 or COX-2 enzyme. Each sample was prepared in triplicate, with the addition of 10–500 μM of the test compounds and […] of solvents such as methanol, ethanol, and dimethyl sulfoxide (DMSO). We then added 20 μL of N,N,N cent,N cent-tetramethyl-p-phenylenediamine (TMPD) to each well. Arachidonic acid was introduced to initiate the reaction, which was allowed to proceed for 2 min. Following the incubation period, the extent of TMPD oxidation was measured using the multiscan Go microplate reader at a wavelength of 590 nm (Thermo Fisher Scientific, Waltham, MA, USA).
Cyclooxygenase (COX) peroxidase activity was evaluated using a colorimetric assay. […] The incubation period was maintained at 2 min, following the manufacturer’s guidelines. […] We determined the concentrations of all compounds required for 50% inhibition of COX-1 and COX-2. IC50 values were then calculated, and the ratio of IC50 values for both cyclooxygenase isoforms allowed us to assess the selectivity of the tested structures for COX-1 and COX-2.

The target of a further assay is T2, COX-2 (Homo sapiens, UniProt P35354).
T2 construct: purchased
T2 sequence (P35354 18-604): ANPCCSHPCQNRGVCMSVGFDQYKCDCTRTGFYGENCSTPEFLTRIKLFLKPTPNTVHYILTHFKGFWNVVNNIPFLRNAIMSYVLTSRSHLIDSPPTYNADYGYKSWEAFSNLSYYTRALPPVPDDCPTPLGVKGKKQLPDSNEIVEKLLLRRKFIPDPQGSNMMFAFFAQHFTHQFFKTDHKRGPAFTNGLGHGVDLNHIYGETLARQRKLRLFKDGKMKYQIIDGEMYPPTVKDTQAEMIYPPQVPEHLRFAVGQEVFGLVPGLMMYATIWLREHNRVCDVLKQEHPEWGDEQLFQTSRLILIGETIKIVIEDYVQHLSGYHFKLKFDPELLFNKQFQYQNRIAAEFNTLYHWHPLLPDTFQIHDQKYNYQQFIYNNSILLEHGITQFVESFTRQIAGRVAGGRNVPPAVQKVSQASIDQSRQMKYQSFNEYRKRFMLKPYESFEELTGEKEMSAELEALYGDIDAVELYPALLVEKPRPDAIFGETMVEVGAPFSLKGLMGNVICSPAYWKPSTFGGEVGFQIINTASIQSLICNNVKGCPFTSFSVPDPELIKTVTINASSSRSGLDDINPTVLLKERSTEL
The description is as above. It counts as biochemical. Conditions: for IC50: incubation 2 min, mean ± SD; for Selectivity Ratio: (COX-2/COX-1): ratio of IC50 values. The method, then: as §1
Cyclooxygenase (COX) peroxidase activity was evaluated using a colorimetric assay. […] The incubation period was maintained at 2 min, following the manufacturer’s guidelines. […] IC50 values were then calculated, and the ratio of IC50 values for both cyclooxygenase isoforms allowed us to assess the selectivity of the tested structures for COX-1 and COX-2.

The subject of assay [1] is NHDF (normal human dermal fibroblast) cells. Description: MTT cytotoxicity assay. It counts as cell-based. Conditions: NHDF cell cultures, 24 h incubation, mean ± SD. The method, then: NHDF (normal human dermal fibroblast) cells, sourced from the American Type Culture Collection (ATCC), were maintained in DMEM without phenol red, enhanced with 10% fetal bovine serum (FBS), 2 mM L-glutamine, and 25 μg/mL gentamicin. The cells were incubated under conditions of 5% CO2, at a temperature of 37 °C, and 95% humidity. We monitored the cells bi-weekly, utilizing or subculturing them once they reached over 70% confluence. For all experimental setups, cells were plated at a density of 10,000 cells per well and allowed to recover in a CO2 incubator for 24 h.
The compounds under investigation were dissolved in DMSO to achieve a final concentration of 10 mM and then stored at −20 °C. Lipopolysaccharide (LPS) from Escherichia coli (Sigma-Aldrich, Saint Louis, MO, USA; catalog no. L2630) was dissolved in distilled water to a concentration of […]. The stock solution of LPS was stored at −20 °C for up to 6 months. Final concentrations of LPS used in this study were 50 µg/mL. Prior to use, the solutions were thawed at room temperature. For each compound, 8 different concentrations in the range of 500–10 μM were prepared in the culture medium.
The cytotoxicity of the test compound was assessed using the MTT assay. After cell seeding and overnight incubation, the supernatant was removed, and the compounds were added at concentrations ranging from 500 to 10 µM. Control cells were treated with complete medium only, while cells treated with medium containing DMSO at the highest compound concentration were included as the solvent control. After the incubation period, the supernatant was removed, and 50 µL of a 1.0 mg/mL MTT solution was added to each well and incubated for 2 h at 37 °C. The medium was then removed, and 100 µL of DMSO was added to each well. Finally, absorbance was measured at 570 nm using a Multiskan GO spectrophotometer.
Cell viability was calculated according to Equation (1): (Ai − Am)/(Ac − Am) × 100(Ai − Am)/(Ac − Am) × 100(1) where Ai is the absorbance of the tested concentration, Am is the absorbance of the medium, and Ac is the absorbance of the control. Based on the cytotoxicity test results, the IC50 was calculated using a 4-point lognormal distribution with a Hill coefficient. Experiments were performed in triplicate.

A short description of assay [2]: ABTS radical scavenging assay. It counts as physicochemical. Conditions: 30 min incubation; mean ± SD, n = 3. The method, then: The activity of ABTS (2,2′-azino-bis(3-ethylbenzothiazoline-6-sulphonic acid)) was assessed to evaluate the radical scavenging potential of the synthesized compounds. The ABTS reagent was generated by combining equal volumes of a 7 mM aqueous solution of ABTS and a 2.45 mM potassium persulfate solution. This mixture was then incubated in the dark at room temperature for 16 h. Following incubation, the solution was diluted with ethanol until the absorbance reached approximately 0.7 ± 0.05 at a wavelength of 734 nm. The stock solutions of the synthesized compounds in DMSO were serially diluted to obtain concentrations ranging from 500 μM to 10 μM in ethanol. The ABTS reagent was then treated with various concentrations of each compound and incubated in the dark at room temperature. After 30 min of incubation, the absorbance was measured at 734 nm, using ethanol as the blank control. Ascorbic acid served as the standard for comparison, and the IC50 values for the synthesized compounds were calculated using the following Equation (3):(3) %ABTS scavenging activity=Abscontrol−Abs sample/Abs (control)×100

Assay [3] can be described thus: DPPH radical scavenging assay. It counts as physicochemical. Conditions: 30 min incubation, 37 °C; mean ± SD, n = 3. As for the experimental part: The DPPH assay was conducted to assess the radical scavenging capabilities of the synthesized compounds. Stock solutions of the compounds were formulated in DMSO and subsequently diluted serially to achieve test concentrations ranging from 500 to 10 μM in ethanol. Each sample’s ethanolic DPPH solution was treated with the respective test concentrations and incubated at 37 °C. After a 30 min incubation period, the absorbance was measured at 517 nm, using ethanol as the blank control. Ascorbic acid served as the reference standard, and the IC50 values for the synthesized compounds were determined using the following Equation (2):(2) %DPPH scavenging activity=Abscontrol−Abs sample/Abs (control)×100
(In general: The DPPH test is a chemical assay of radical scavenging.)

The structures appear in SMILES notation.

With `O=C(C1=C(O)c2ccccc2S(=O)(=O)N1CCCN1CCN(c2ncccn2)CC1)c1ccc(Br)cc1` [BS30], the IC50 is 122 ± 3.4 µM on COX-1; 59.2 ± 3.7 µM against COX-2; 168 ± 30.4 µM in assay [1]; 88.3 ± 1.6 µM in assay [2]; more than 500 µM in assay [3]. On COX-2, the “Selectivity Ratio: (COX-2/COX-1)” value is 0.49.
Take `Cc1ccc(C(=O)C2=C(O)c3ccccc3S(=O)(=O)N2CCCN2CCN(c3ccccn3)CC2)cc1` [BS25]: the IC50 was 131 ± 7.5 µM against COX-1; 62.6 ± 1.7 µM against COX-2; 200 ± 20.9 µM in assay [1]; 75.3 ± 1.4 µM in assay [2]; more than 500 µM in assay [3]. Besides, on COX-2, the “Selectivity Ratio: (COX-2/COX-1)” value was found to be 0.48.
With `Cc1cnc(NC(=O)C2=C(O)c3ccccc3S(=O)(=O)N2C)s1` [meloxicam, reference compound], the values for the IC50 in assay [1], in assay [2] and in assay [3] were 174 ± 20.3 µM, 89.5 ± 1.5 µM and more than 500 µM, respectively.
For the compound `O=C(C1=C(O)c2ccccc2S(=O)(=O)N1CCCN1CCN(c2ccccn2)CC1)c1ccc(F)cc1` [BS26], the IC50 against COX-1 was 129 ± 9.1 µM; on COX-2, 18.2 ± 4.3 µM; in assay [1], 203 ± 22.9 µM; in assay [2], 83.7 ± 3.2 µM; in assay [3], more than 500 µM. Further, on COX-2, the “Selectivity Ratio: (COX-2/COX-1)” value was 0.14.
For the compound `COc1ccc(C(=O)C2=C(O)c3ccccc3S(=O)(=O)N2CCCN2CCN(c3ncccn3)CC2)cc1` [BS24], the IC50 against COX-1 was 127 ± 3.6 µM; on COX-2, 26.3 ± 3.4 µM; in assay [1], 163 ± 15.7 µM; in assay [2], 63.2 ± 2.8 µM; in assay [3], more than 500 µM. Besides, the “Selectivity Ratio: (COX-2/COX-1)” value at COX-2 came out at 0.21.
`O=C(C1=C(O)c2ccccc2S(=O)(=O)N1CCCN1CCN(c2ncccn2)CC1)c1ccc(F)cc1` [BS27]: the IC50 is 117 ± 4.3 µM at COX-1; 25.6 ± 2 µM on COX-2; 191 ± 12.5 µM in assay [1]; 83.3 ± 2.5 µM in assay [2]; more than 500 µM in assay [3]. Further, the “Selectivity Ratio: (COX-2/COX-1)” value at COX-2 is reported as 0.22.
As to `O=C1O[C@H]([C@@H](O)CO)C(O)=C1O` [ascorbic acid, reference compound], the IC50 in assay [2] stood at 124 ± 2.3 µM; in assay [3], 218.3 ± 1.8 µM.
As for `O=C(C1=C(O)c2ccccc2S(=O)(=O)N1CCCN1CCN(c2ccccn2)CC1)c1ccc(Br)cc1` [BS29], the IC50 at COX-1 is 125 ± 6.7 µM; against COX-2, 17.8 ± 2.1 µM; in assay [1], 233 ± 11.8 µM; in assay [2] it was 53.7 ± 1.7 µM; in assay [3] it was more than 500 µM. The “Selectivity Ratio: (COX-2/COX-1)” value at COX-2 turned out to be 0.14.

One may read the IC50 as the concentration at which inhibition is half-maximal. Higher therefore signals lower potency.
